Laboratory results: ChEMBL document CHEMBL4145494, “Synthesis and biological evaluation of aurora kinases inhibitors based on N-trisubstituted pyrimidine scaffold” (Eur J Med Chem, 2018)

Columns and labels:
[1] = test system: HeLa; experiment: Antiproliferative activity against human HeLa cells after 48 hrs by CCK8 assay; assay type: functional, cell-based
[2] = test system: MCF7; experiment: Antiproliferative activity against human MCF7 cells after 48 hrs by CCK8 assay; assay type: functional, cell-based; conditions: MCF7, 48 h
[3] = test system: A-431; experiment: Antiproliferative activity against human A431 cells after 48 hrs by CCK8 assay; assay type: functional, cell-based; conditions: A-431, 48 h
[4] = test system: HCT-116; experiment: Antiproliferative activity against human HCT116 cells after 48 hrs by CCK8 assay; assay type: functional, cell-based; conditions: HCT-116, 48 h
[5] = test system: U-937; experiment: Antiproliferative activity against human U937 cells after 48 hrs by CCK8 assay; assay type: functional, cell-based; conditions: U-937, 48 h
[6] = target: T1, Aurora kinase A (Homo sapiens, UniProt O14965); experiment: Inhibition of AURKA (unknown origin) using FAM-labeled peptide substrate preincubated for 10 mins followed by substrate addition measured after 60 mins by caliper assay
T1 sequence (O14965 whole entry): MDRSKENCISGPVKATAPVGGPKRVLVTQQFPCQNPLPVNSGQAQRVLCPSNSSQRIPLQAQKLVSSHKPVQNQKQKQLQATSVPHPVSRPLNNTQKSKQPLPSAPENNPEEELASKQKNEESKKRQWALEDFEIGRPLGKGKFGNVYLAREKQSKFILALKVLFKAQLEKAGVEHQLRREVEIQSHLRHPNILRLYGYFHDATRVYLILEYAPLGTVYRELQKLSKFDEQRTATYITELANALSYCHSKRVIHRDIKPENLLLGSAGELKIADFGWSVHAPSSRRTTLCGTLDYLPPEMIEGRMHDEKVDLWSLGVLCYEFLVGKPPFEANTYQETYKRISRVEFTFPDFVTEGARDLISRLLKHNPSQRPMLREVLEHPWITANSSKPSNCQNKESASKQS

[7] = test system: MDA-MB-231; experiment: Antiproliferative activity against human MDA-MB-231 cells after 48 hrs by CCK8 assay; assay type: functional, cell-based; conditions: MDA-MB-231, 48 h
[8] = test system: K562; experiment: Antiproliferative activity against human K562 cells after 48 hrs by CCK8 assay; assay type: functional, cell-based; conditions: K562, 48 h
[9] = target: Aurora kinase B (Homo sapiens, UniProt Q96GD4); experiment: Inhibition of AURKB (unknown origin) using FAM-labeled peptide substrate preincubated for 10 mins followed by substrate addition measured after 60 mins by caliper assay
Aurora kinase B, sequence (Q96GD4 whole entry): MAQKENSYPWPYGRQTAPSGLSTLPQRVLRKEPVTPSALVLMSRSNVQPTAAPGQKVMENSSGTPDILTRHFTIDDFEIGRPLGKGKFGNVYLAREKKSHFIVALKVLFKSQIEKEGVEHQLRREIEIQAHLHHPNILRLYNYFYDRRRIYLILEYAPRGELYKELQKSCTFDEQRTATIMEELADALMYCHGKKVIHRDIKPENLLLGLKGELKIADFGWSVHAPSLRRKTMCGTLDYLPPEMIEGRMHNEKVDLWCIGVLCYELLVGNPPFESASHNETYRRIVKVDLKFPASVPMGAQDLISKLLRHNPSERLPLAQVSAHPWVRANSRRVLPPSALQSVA

Row | Structure (SMILES) | IC50 [1] [nM] | IC50 [2] [nM] | IC50 [3] [nM] | IC50 [4] [nM] | IC50 [5] [nM] | IC50 [6] [nM] | IC50 [7] [nM] | IC50 [8] [nM] | IC50 [9] [nM]
1 | COc1ccc(Nc2nc(Nc3cc(C)[nH]n3)cc(N3CCN(C)CC3)n2)cc1OC | 678 | 6540 | 778 | 777 | 150 | 38 | 459 | 462 | 452
2 | Cc1cc(Nc2cc(N3CCN(C)CC3)nc(Nc3ccc(Cl)c(F)c3)n2)n[nH]1 | 374 | 818 | 136 | 252 | 24.8 | 31 | 155 | 218 | 101
3 | Cc1cc(Nc2cc(N3CCN(C)CC3)nc(Nc3cccc(F)c3)n2)n[nH]1 | 486 | 1260 | 201 | 317 | 33.1 | 25 | 166 | 184 | 102
